Test results as given in patent US5444073A, “Method for treating memory impairment” (H. Lundbeck A/S, priority 1991, dated 1995).

test: Catalepsy test (rat on a vertical wire mesh, s.c.); conditions: Cataleptic Activity, maximum within the first 6 hours
Method: Test compound is given s.c. in different doses. The rat (170-240 g) is placed on a vertical wire mesh (mesh-diameter 12 mm). The rat is considered cataleptic if it remains immobile for more than 15 sec. The maximum number of rats showing catalepsy within the first 6 hours is recorded for each dose group. The results are recorded in fractions and an ED50 value is calculated by means of log-probit analysis.

| Compound | ED50(s.c.) [µmol/kg] |
| --- | --- |
| 5-Chloro-1-(4-fluorophenyl)-3-[4-[2-(2-imidazolidinon-1-yl)ethyl]-12,3,6-tetrahydropyridin-4-yl]-5-trifluoromethyl-1H-indole [Comp. C] | 4.5 |
| 5-Chloro-1-(4-fluorophenyl)-3-[1-[2-(2-imidazolidinon-1-yl)ethyl]-1,2,3,6-tetrahydropyridin-4-yl]-5-trifluoromethyl-1H-indole [Comp. B] | 2.2 |
| CN1CCN(CCN2CCC(c3cn(-c4ccc(F)cc4)c4ccc(Cl)cc34)CC2)C1=O.O=C(O)/C=C/C(=O)O [Comp. No 3, 5-chloro-1-(4-fluorophenyl)-3-[1-[2-(3-methyl-2-imidazolidinon-1-yl)ethyl]4-piperidyl]-1H-indole, fumarate] | 31 |
| O=C(O)/C=C/C(=O)O.O=C1CCCN1CCN1CCC(c2cn(-c3ccc(F)cc3)c3ccc(Cl)cc23)CC1 [Comp. No 4, 5-chloro-1-(4-fluorophenyl)-3-[1-[2-(2-pyrrolidinon-1-yl)ethyl]-4-piperidyl]-1H-indole, fumarate] | 23 |
| O=C1NCCN1CCN1CC=C(c2cn(-c3ccc(F)cc3)c3ccc(C(F)(F)F)cc23)CC1 [Comp. A, 1-(4-Fluorophenyl)-3-[1-[2-(2-imidazolidinon-1-yl)ethyl]-1,2,3,6-tetrahydropyridin-4-yl]-5-trifluoromethyl-1H-indole] | 0.49 |
